Experimental data published in patent US8492559B2, “Substituted indole compounds” (Gruenenthal GmbH, priority 2009, dated 2013).

Target: T1, B1R receptor of the rat (rB1R) (Rattus norvegicus, UniProt P97583)
T1 construct: expressed in transfected cells; host or cells: CHO K1 cells
T1 sequence (P97583 1-337): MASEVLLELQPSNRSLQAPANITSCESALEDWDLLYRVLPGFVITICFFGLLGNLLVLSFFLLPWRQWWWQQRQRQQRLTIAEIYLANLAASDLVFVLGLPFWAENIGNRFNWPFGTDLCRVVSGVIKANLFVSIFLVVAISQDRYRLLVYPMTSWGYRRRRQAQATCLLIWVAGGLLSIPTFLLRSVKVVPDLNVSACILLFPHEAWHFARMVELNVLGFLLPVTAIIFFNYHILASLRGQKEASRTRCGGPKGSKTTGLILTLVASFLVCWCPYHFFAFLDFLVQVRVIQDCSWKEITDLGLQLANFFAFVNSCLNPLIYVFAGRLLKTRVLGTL
Assay: Functional investigation on the bradykinin 1 receptor (B1R), FLIPR Ca2+ assay, rB1R cells
Format: cell-based
Settings: CHO K1 cells with rat B1R, agonist Des-Arg9 bradykinin, % of maximum achievable inhibition; for inhibition at 10 µM: CHO-K1, 10 μM test substance, read-out: B1R antagonism, rat [10 μM] % inhibition
Outline: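 Cells plated at 20,000-35,000/well, incubated overnight at 37° C, loaded with Fluo-4 (2.13 μM, 60 min, 37° C, or 2.5 μM in buffer A), then read in FLIPR (λex 488, λem 540 nm). Agonist: Lys-Des-[MUT] bradykinin (0.5 nM) or Des-[MUT] bradykinin (100 nM). IC50 from % inhibition versus maximum, n=2-3, N>=2.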

| SMILES | inhibition at 10 µM [%] | B1R antagonism, rat [10 μM] % inhibition (10 μM test substance, 10 µM) [%] |
| --- | --- | --- |
| COc1cc(C)c(S(=O)(=O)Nc2ccc3ccn(CC(=O)N4CCN(C5CCN(C)CC5)CC4)c3c2)c(C)c1 [G_CC-1, 4-Methoxy-2,6-dimethyl-N-[1-[2-[4-(1-methyl-piperidin-4-yl)-piperazin-1-yl]-2-oxo-ethyl]-1H-indol-6-yl]-benzenesulfonic acid amide] | 62 | – |
| COc1cc(C)c(S(=O)(=O)Nc2ccc3ccn(CC(=O)N4CC5CC4CN5Cc4ccc(F)cc4)c3c2)c(C)c1 (stereo not shown) [G_CC-33, N-[1-[2-[2-[(4-Fluorophenyl)-methyl]-2,5-diazabicyclo[2.2.1]heptan-5-yl]-2-oxo-ethyl]-1H-indol-6-yl]-4-methoxy-2,6-dimethyl-benzenesulfonic acid amide] | 71 | – |
| COc1cc(C)c(S(=O)(=O)Nc2cccc3ccn(CC(=O)N4CCN(C(=O)c5cccnc5)CC4)c23)c(C)c1 [G_CC-139, 4-Methoxy-2,6-dimethyl-N-[1-[2-oxo-2-[4-(pyridin-3-carbonyl)-piperazin-1-yl]-ethyl]-1H-indol-7-yl]-benzenesulfonic acid amide] | 50 | – |
| COc1cc(C)c(S(=O)(=O)Nc2cccc3ccn(CC(=O)N4CCN(c5ncccn5)CC4)c23)c(C)c1 [G_CC-6, 4-Methoxy-2,6-dimethyl-N-[1-[2-oxo-2-(4-pyrimidin-2-yl-piperazin-1-yl)-ethyl]-1H-indol-7-yl]-benzenesulfonic acid amide] | 73 | – |
| COc1cc(C)c(S(=O)(=O)Nc2cccc3ccn(CCC(=O)NCCN4CCC(c5cccs5)(N(C)C)CC4)c23)c(C)c1 [G_CC-51, N-[2-(4-Dimethylamino-4-thiophen-2-yl-piperidin-1-yl)-ethyl]-3-[7-[[(4-methoxy-2,6-dimethyl-phenyl)sulfonyl]amino]-1H-indol-1-yl]-propionamide] | 93 | – |
| COc1cc(C)c(S(=O)(=O)Nc2cccc3ccn(CC(=O)N4CCC(c5cccc(F)c5)(N5CCN(C)CC5)CC4)c23)c(C)c1 [G_CC-84, N-[1-[2-[4-(3-Fluorophenyl)-4-(4-methyl-piperazin-1-yl)-piperidin-1-yl]-2-oxo-ethyl]-1H-indol-7-yl]-4-methoxy-2,6-dimethyl-benzenesulfonic acid amide] | 102 | – |
| COc1cc(C)c(S(=O)(=O)Nc2ccc3ccn(CC(=O)NCCN4CCC(c5cccs5)(N(C)C)CC4)c3c2)c(C)c1 [G_CC-30, N-[2-(4-Dimethylamino-4-thiophen-2-yl-piperidin-1-yl)-ethyl]-2-[6-[[(4-methoxy-2,6-dimethyl-phenyl)sulfonyl]amino]-1H-indol-1-yl]-acetamide] | 53 | – |
| O=C(Cn1ccc2ccc(NS(=O)(=O)c3ccccc3C(F)(F)F)cc21)N1CCC2(CC1)CCN(c1ccncc1)CC2 [G_CC-37, N-[1-[2-Oxo-2-(3-pyridin-4-yl-3,9-diazaspiro[5.5]undecan-9-yl)-ethyl]-1H-indol-6-yl]-2-(trifluoromethyl)-benzenesulfonic acid amide] | 91 | – |
| O=C(CCn1ccc2ccc(N3Cc4cccc(Cl)c4C3=O)cc21)N1CCC2(CC1)CCN(Cc1ccc(F)cc1)C2=O [G_CC-66, 8-[3-[6-(4-Chloro-3-oxo-1,2-dihydro-isoindol-2-yl)-1H-indol-1-yl]-propanoyl]-3-[(4-fluorophenyl)-methyl]-3,8-diazaspiro[4.5]decan-4-one] | 52 | – |
| COc1cc(C)c(S(=O)(=O)Nc2cccc3ccn(CC(=O)N4CCC5(CCN(Cc6ccccc6)C5)C4)c23)c(C)c1 (stereo not shown) [G_CC-13, N-[1-[2-(3-Benzyl-3,7-diazaspiro[4.4]nonan-7-yl)-2-oxo-ethyl]-1H-indol-7-yl]-4-methoxy-2,6-dimethyl-benzenesulfonic acid amide] | 58 | – |
| Cc1cc(S(=O)(=O)Nc2cccc3ccn(CC(=O)NCCC4CCN(c5ccncc5)CC4)c23)c(C)cc1Cl [G_CC-28, 2-[7-[[(4-Chloro-2,5-dimethyl-phenyl)sulfonyl]amino]-1H-indol-1-yl]-N-[2-(1-pyridin-4-yl-piperidin-4-yl)-ethyl]-acetamide] | 82 | – |
| COc1cc(C)c(S(=O)(=O)Nc2cccc3ccn(CC(=O)N4CCC5(CC4)C(=O)N(C)CC5c4ccc(F)cc4)c23)c(C)c1 (stereo not shown) [G_CC-31, N-[1-[2-[1-(4-Fluorophenyl)-3-methyl-4-oxo-3,8-diazaspiro[4.5]decan-8-yl]-2-oxo-ethyl]-1H-indol-7-yl]-4-methoxy-2,6-dimethyl-benzenesulfonic acid amide] | 91 | – |
| O=C(CCn1ccc2cccc(N3Cc4cccc(Cl)c4C3=O)c21)NCC1CCN(c2ccncc2)CC1 [G_CC-123, 3-[7-(4-Chloro-3-oxo-1,2-dihydro-isoindol-2-yl)-1H-indol-1-yl]-N-[(1-pyridin-4-yl-piperidin-4-yl)-methyl]-propionamide] | 67 | – |
| COc1cc(C)c(S(=O)(=O)Nc2cccc3ccn(CCC(=O)N4CCN(CCCN(C)C)CC4)c23)c(C)c1 [G_CC-44, N-[1-[3-[4-(3-Dimethylamino-propyl)-piperazin-1-yl]-3-oxo-propyl]-1H-indol-7-yl]-4-methoxy-2,6-dimethyl-benzenesulfonic acid amide] | 73 | – |
| CN1CCN(C2(c3cccc(F)c3)CCN(CCN(C)C(=O)Cn3ccc4ccc(N5Cc6cccc(Cl)c6C5=O)cc43)CC2)CC1 [G_CC-113, 2-[6-(4-Chloro-3-oxo-1,2-dihydro-isoindol-2-yl)-1H-indol-1-yl]-N-[2-[4-(3-fluorophenyl)-4-(4-methyl-piperazin-1-yl)-piperidin-1-yl]-ethyl]-N-methyl-acetamide] | 78 | – |
| COc1cc(C)c(S(=O)(=O)Nc2ccc3ccn(CCC(=O)N(C)CCCN4CCN(c5ccncc5)CC4)c3c2)c(C)c1 [G_CC-116, 3-[6-[[(4-Methoxy-2,6-dimethyl-phenyl)sulfonyl]amino]-1H-indol-1-yl]-N-methyl-N-[3-(4-pyridin-4-yl-piperazin-1-yl)-propyl]-propionamide] | 74 | – |
| O=C(CCn1ccc2ccc(N3Cc4cccc(Cl)c4C3=O)cc21)N1CCC(O)(c2cccnc2)CC1 [G_CC-69, 7-Chloro-2-[1-[3-(4-hydroxy-4-pyridin-3-yl-piperidin-1-yl)-3-oxo-propyl]-1H-indol-6-yl]-2,3-dihydro-isoindol-1-one] | 65 | – |
| Cc1cc(S(=O)(=O)Nc2cccc3ccn(CC(=O)NCCN4CCC(c5cccs5)(N(C)C)CC4)c23)c(C)cc1Cl [G_CC-27, 2-[7-[[(4-Chloro-2,5-dimethyl-phenyl)sulfonyl]amino]-1H-indol-1-yl]-N-[2-(4-dimethylamino-4-thiophen-2-yl-piperidin-1-yl)-ethyl]-acetamide] | 56 | – |
| CN1CCC(CN2CCN(C(=O)CCn3ccc4ccc(N5Cc6cccc(Cl)c6C5=O)cc43)CC2)CC1 [G_CC-64, 7-Chloro-2-[1-[3-[4-[(1-methyl-piperidin-4-yl)-methyl]-piperazin-1-yl]-3-oxo-propyl]-1H-indol-6-yl]-2,3-dihydro-isoindol-1-one] | 89 | – |
| O=C(Cn1ccc2ccc(N3Cc4cccc(Cl)c4C3=O)cc21)NCCC1CCN(c2ccncc2)CC1 [G_CC-103, 2-[6-(4-Chloro-3-oxo-1,2-dihydro-isoindol-2-yl)-1H-indol-1-yl]-N-[2-(1-pyridin-4-yl-piperidin-4-yl)-ethyl]-acetamide] | 88 | – |
| Cc1cc(S(=O)(=O)Nc2ccc3ccn(CC(=O)N(C)CCCN4CCC(c5ccccc5)(N(C)C)CC4)c3c2)c(C)cc1Cl [G_CC-15, 2-[6-[[(4-Chloro-2,5-dimethyl-phenyl)sulfonyl]amino]-1H-indol-1-yl]-N-[3-(4-dimethylamino-4-phenyl-piperidin-1-yl)-propyl]-N-methyl-acetamide] | 65 | – |
| Cc1cc(S(=O)(=O)Nc2cccc3ccn(CCC(=O)N4CCC(CCN5CCCC5)CC4)c23)c(C)cc1Cl [G_CC-60, 4-Chloro-2,5-dimethyl-N-[1-[3-oxo-3-[4-(2-pyrrolidin-1-yl-ethyl)-piperidin-1-yl]-propyl]-1H-indol-7-yl]-benzenesulfonic acid amide] | 87 | – |
| Cc1cc(S(=O)(=O)Nc2ccc3ccn(CC(=O)NCCC4CCN(c5ccncc5)CC4)c3c2)c(C)cc1Cl [G_CC-24, 2-[6-[[(4-Chloro-2,5-dimethyl-phenyl)sulfonyl]amino]-1H-indol-1-yl]-N-[2-(1-pyridin-4-yl-piperidin-4-yl)-ethyl]-acetamide] | 89 | – |
| COc1cc(C)c(S(=O)(=O)Nc2cccc3ccn(CC(=O)N4CCC(Oc5ccncc5)CC4)c23)c(C)c1 [Compound G-03, 4-Methoxy-2,6-dimethyl-N-[1-[2-oxo-2-(4-pyridin-4-yloxy-piperidin-1-yl)-ethyl]-1H-indol-7-yl]-benzenesulfonic acid amide] | – | 90 |
| COc1cc(C)c(S(=O)(=O)Nc2cccc3ccn(CC(=O)N(C)CCCN4CCC(c5cccs5)(N(C)C)CC4)c23)c(C)c1 [G_CC-18, N-[3-(4-Dimethylamino-4-thiophen-2-yl-piperidin-1-yl)-propyl]-2-[7-[[(4-methoxy-2,6-dimethyl-phenyl)sulfonyl]amino]-1H-indol-1-yl]-N-methyl-acetamide] | 87 | – |
